Assay results published in US20260152498A1, “4,5,6,7-TETRAHYDRO-1H-PYRAZOLO[4,3-c]PYRIDINE COMPOUNDS AND DERIVATIVES AS USP1 INHIBITORS” (EXELIXIS, INC., priority 2022, published 2026).
pIC50: −log10 of the molar value.

Columns and labels:
USP1-UAF1 complex [1] = target: T1, USP1-UAF1 complex (Homo sapiens, UniProt O94782); test: biochemical
Procedure: (§1) Biochemical Assay: The compounds were evaluated for their potential to inhibit USP1-UAF1 complex (Boston Biochem, Catalog: E568-050) using a fluorescence-based assay. The final concentrations of USP1-UAF1 complex protein and substrate Ubiquitin-Rhodamine-110 (R&D systems, Catalog U-555-050) used in the assay were 0.45 and 150 nM respectively. 50 mM HEPES pH. 7.5, 100 mM NaCl, 0.5 mM EDTA, 1 mM TCEP, 10% BSA, 0.01% Tween 20 buffer was used in the assay. The total assay volume was 20 μL. […] The final DMSO concentration in the assay was 1%. The compounds were pre-incubated with USP1-UAF1 complex at 25° C. for 15 min. After preincubation, required concentration of substrate was added and incubated at 25° C. for 60 min. Fluorescence at Excitation: 485 nm, Emission: 535 nm was measured in Victor-5 from Perkin Elmer.
(§2) To determine IC50 values, dose response curves were generated by plotting percentage inhibition as a function of inhibitor concentration and the data was fitted to sigmoidal non-linear regression equation (variable slope) using Graph Pad prism software V8.
(§3) The compounds were screened by the above-mentioned assay procedure.

USP1-UAF1 complex [2] = target: T1, USP1-UAF1 complex; conditions: 1.2 µM
Procedure: as §1, §2, §3

T1 sequence (O94782 whole entry): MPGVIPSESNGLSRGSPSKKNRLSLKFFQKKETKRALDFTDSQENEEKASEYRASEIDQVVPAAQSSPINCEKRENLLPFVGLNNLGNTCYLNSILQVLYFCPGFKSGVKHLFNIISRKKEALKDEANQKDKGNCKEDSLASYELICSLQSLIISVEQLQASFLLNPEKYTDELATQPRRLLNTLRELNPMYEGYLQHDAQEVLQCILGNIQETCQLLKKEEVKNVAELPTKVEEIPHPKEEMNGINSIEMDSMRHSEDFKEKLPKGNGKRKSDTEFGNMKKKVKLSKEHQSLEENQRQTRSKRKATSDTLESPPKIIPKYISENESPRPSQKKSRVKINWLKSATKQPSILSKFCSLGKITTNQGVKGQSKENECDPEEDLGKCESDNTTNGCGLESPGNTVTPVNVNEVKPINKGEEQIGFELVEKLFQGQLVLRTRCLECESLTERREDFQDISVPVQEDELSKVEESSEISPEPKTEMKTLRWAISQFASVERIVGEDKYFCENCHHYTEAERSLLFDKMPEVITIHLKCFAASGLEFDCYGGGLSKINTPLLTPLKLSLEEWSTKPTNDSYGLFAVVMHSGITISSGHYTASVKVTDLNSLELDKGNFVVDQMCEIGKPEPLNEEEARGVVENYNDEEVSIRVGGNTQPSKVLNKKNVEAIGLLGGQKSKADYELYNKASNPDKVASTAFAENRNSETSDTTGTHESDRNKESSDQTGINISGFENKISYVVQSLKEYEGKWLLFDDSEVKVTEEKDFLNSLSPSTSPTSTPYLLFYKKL
T1 sequence (Q8TAF3 whole entry partner): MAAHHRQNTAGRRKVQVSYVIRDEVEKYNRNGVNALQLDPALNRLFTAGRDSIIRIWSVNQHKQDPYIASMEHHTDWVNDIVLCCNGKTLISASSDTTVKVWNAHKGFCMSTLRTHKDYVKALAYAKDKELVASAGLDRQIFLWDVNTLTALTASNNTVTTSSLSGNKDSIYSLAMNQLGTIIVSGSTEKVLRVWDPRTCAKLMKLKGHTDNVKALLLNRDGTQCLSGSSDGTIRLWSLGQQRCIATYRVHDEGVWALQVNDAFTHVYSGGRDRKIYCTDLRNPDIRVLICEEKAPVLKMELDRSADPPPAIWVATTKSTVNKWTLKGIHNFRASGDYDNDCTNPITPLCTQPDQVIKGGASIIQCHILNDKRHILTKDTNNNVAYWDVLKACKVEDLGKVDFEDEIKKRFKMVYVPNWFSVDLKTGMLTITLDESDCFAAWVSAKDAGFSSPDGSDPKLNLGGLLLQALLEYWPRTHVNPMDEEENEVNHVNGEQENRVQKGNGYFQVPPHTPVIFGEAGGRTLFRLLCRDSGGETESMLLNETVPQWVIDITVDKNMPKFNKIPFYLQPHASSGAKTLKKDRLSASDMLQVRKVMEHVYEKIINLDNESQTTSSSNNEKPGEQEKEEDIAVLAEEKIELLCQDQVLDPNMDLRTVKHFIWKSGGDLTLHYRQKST

Compound	pIC50 (USP1-UAF1 complex [1])	inhibition (USP1-UAF1 complex [2])
CCn1nc(-c2c(OC)ncnc2C2CC2)c2c1CCN(c1ccc(-c3nc(C(F)(F)F)cn3C)cn1)C2 [Compound 26, 3-(4-cyclopropyl-6-methoxypyrimidin-5-yl)-1-ethyl-5-(5-(1-methyl-4-(trifluoromethyl)-1H-imidazol-2-yl)pyridin-2-yl)-4,5,6,7-tetrahydro-1H-pyrazolo[4,3-c]pyridine]	< 7.00	90%
COc1ncnc(C2CC2)c1-c1nn(C(C)C)c2c1CN(c1ccc(-c3nc(C(F)(F)F)cn3C)cc1)CC2 [Compound 27, 3-(4-cyclopropyl-6-methoxypyrimidin-5-yl)-1-isopropyl-5-(4-(1-methyl-4-(trifluoromethyl)-1H-imidazol-2-yl)phenyl)-4,5,6,7-tetrahydro-1H-pyrazolo[4,3-c]pyridine]	> 7.30	98%
COc1ncnc(C2CC2)c1-c1nn(C(C)C)c2c1CN(c1ccc(-c3nc(C(F)(F)F)cn3C)nc1)CC2 [Compound 28, 3-(4-cyclopropyl-6-methoxypyrimidin-5-yl)-1-isopropyl-5-(6-(1-methyl-4-(trifluoromethyl)-1H-imidazol-2-yl)pyridin-3-yl)-4,5,6,7-tetrahydro-1H-pyrazolo[4,3-c]pyridine]	< 7.00	90%
COc1ncnc(C2CC2)c1-c1nn(C(C)C)c2c1CN(c1ccc(-c3nc(C(F)(F)F)cn3C)cn1)CC2 [Compound 29, 3-(4-cyclopropyl-6-methoxypyrimidin-5-yl)-1-isopropyl-5-(5-(1-methyl-4-(trifluoromethyl)-1H-imidazol-2-yl)pyridin-2-yl)-4,5,6,7-tetrahydro-1H-pyrazolo[4,3-c]pyridine]	< 7.00	90%
COc1ncnc(C2CC2)c1-c1nn(C2CC2)c2c1CN(c1ccc(-c3nc(C(F)(F)F)cn3C)cc1)CC2 [Compound 30, 1-cyclopropyl-3-(4-cyclopropyl-6-methoxypyrimidin-5-yl)-5-(4-(1-methyl-4-(trifluoromethyl)-1H-imidazol-2-yl)phenyl)-4,5,6,7-tetrahydro-1H-pyrazolo[4,3-c]pyridine]	> 7.30	98%
COc1ncnc(C2CC2)c1-c1nn(C2CC2)c2c1CN(c1ccc(-c3nc(C(F)(F)F)cn3C)nc1)CC2 [Compound 31, 1-cyclopropyl-3-(4-cyclopropyl-6-methoxypyrimidin-5-yl)-5-(6-(1-methyl-4-(trifluoromethyl)-1H-imidazol-2-yl)pyridin-3-yl)-4,5,6,7-tetrahydro-1H-pyrazolo[4,3-c]pyridine]	< 7.00	86%
COc1ncnc(C2CC2)c1-c1nn(C2CC2)c2c1CN(c1ccc(-c3nc(C(F)(F)F)cn3C)cn1)CC2 [Compound 32, 1-cyclopropyl-3-(4-cyclopropyl-6-methoxypyrimidin-5-yl)-5-(5-(1-methyl-4-(trifluoromethyl)-1H-imidazol-2-yl)pyridin-2-yl)-4,5,6,7-tetrahydro-1H-pyrazolo[4,3-c]pyridine]	< 7.00	89%
COc1ncnc(C2CC2)c1-c1nn(C2CCC2)c2c1CN(c1ccc(-c3nc(C(F)(F)F)cn3C)cc1)CC2 [Compound 33, 1-cyclobutyl-3-(4-cyclopropyl-6-methoxypyrimidin-5-yl)-5-(4-(1-methyl-4-(trifluoromethyl)-1H-imidazol-2-yl)phenyl)-4,5,6,7-tetrahydro-1 H-pyrazolo[4,3-c]pyridine]	7.00 to 7.30	90%
COc1ncnc(C2CC2)c1-c1nn(C2CCC2)c2c1CN(c1ccc(-c3nc(C(F)(F)F)cn3C)nc1)CC2 [Compound 34, 1-cyclobutyl-3-(4-cyclopropyl-6-methoxypyrimidin-5-yl)-5-(6-(1-methyl-4-(trifluoromethyl)-1H-imidazol-2-yl)pyridin-3-yl)-4,5,6,7-tetrahydro-1H-pyrazolo[4,3-c]pyridine]	< 7.00	75%
COc1ncnc(C2CC2)c1-c1nn(C2CCC2)c2c1CN(c1ccc(-c3nc(C(F)(F)F)cn3C)cn1)CC2 [Compound 35, 1-cyclobutyl-3-(4-cyclopropyl-6-methoxypyrimidin-5-yl)-5-(5-(1-methyl-4-(trifluoromethyl)-1H-imidazol-2-yl)pyridin-2-yl)-4,5,6,7-tetrahydro-1H-pyrazolo[4,3-c]pyridine]	< 7.00	76%

Second part, the compound after the results:

pIC50 (USP1-UAF1 complex [1])	inhibition (USP1-UAF1 complex [2])	Compound
> 7.30	99%	COc1ncnc(C2CC2)c1-c1nn(Cc2ccccc2)c2c1CN(c1ccc(-c3nc(C(F)(F)F)cn3C)cc1)CC2 [Compound 36, 1-benzyl-3-(4-cyclopropyl-6-methoxypyrimidin-5-yl)-5-(4-(1-methyl-4-(trifluoromethyl)-1H-imidazol-2-yl)phenyl)-4,5,6,7-tetrahydro-1H-pyrazolo[4,3-c]pyridine]
7.00 to 7.30	98%	COc1ncnc(C2CC2)c1-c1nn(Cc2ccccc2)c2c1CN(c1ccc(-c3nc(C(F)(F)F)cn3C)cn1)CC2 [Compound 37, 1-benzyl-3-(4-cyclopropyl-6-methoxypyrimidin-5-yl)-5-(5-(1-methyl-4-(trifluoromethyl)-1H-imidazol-2-yl)pyridin-2-yl)-4,5,6,7-tetrahydro-1H-pyrazolo[4,3-c]pyridine]
> 7.30	99%	COc1ncnc(C2CC2)c1-c1nn(C)c2c1CN(c1ccc(-c3nc(C(F)(F)F)cn3C)cc1)CC2C (stereo not shown) [Compound 38, 3-(4-cyclopropyl-6-methoxypyrimidin-5-yl)-1,7-dimethyl-5-(4-(1-methyl-4-(trifluoromethyl)-1H-imidazol-2-yl)phenyl)-4,5,6,7-tetrahydro-1H-pyrazolo[4,3-c]pyridine]
7.00 to 7.30	98%	COc1ncnc(C2CC2)c1-c1nn(C)c2c1CN(c1ccc(-c3nc(C(F)(F)F)cn3C)nc1)CC2C (stereo not shown) [Compound 39, 3-(4-cyclopropyl-6-methoxypyrimidin-5-yl)-1,7-dimethyl-5-(6-(1-methyl-4-(trifluoromethyl)-1H-imidazol-2-yl)pyridin-3-yl)-4,5,6,7-tetrahydro-1H-pyrazolo[4,3-c]pyridine]
7.00 to 7.30	97%	COc1ncnc(C2CC2)c1-c1nn(C)c2c1CN(c1ccc(-c3nc(C(F)(F)F)cn3C)cn1)CC2C (stereo not shown) [Compound 40, 3-(4-cyclopropyl-6-methoxypyrimidin-5-yl)-1,7-dimethyl-5-(5-(1-methyl-4-(trifluoromethyl)-1H-imidazol-2-yl)pyridin-2-yl)-4,5,6,7-tetrahydro-1H-pyrazolo[4,3-c]pyridine]
> 7.30	100%	COc1ncnc(C2CC2)c1-c1nn(C)c2c1CN(c1ccc(-c3nc(C(F)(F)F)cn3C)cc1)CC2(C)C [Compound 41, 3-(4-cyclopropyl-6-methoxypyrimidin-5-yl)-1,7,7-trimethyl-5-(4-(1-methyl-4-(trifluoromethyl)-1H-imidazol-2-yl)phenyl)-4,5,6,7-tetrahydro-1H-pyrazolo[4,3-c]pyridine]
7.00 to 7.30	96%	COc1ncnc(C2CC2)c1-c1nn(C)c2c1CN(c1ccc(-c3nc(C(F)(F)F)cn3C)nc1)CC2(C)C [Compound 42, 3-(4-cyclopropyl-6-methoxypyrimidin-5-yl)-1,7,7-trimethyl-5-(6-(1-methyl-4-(trifluoromethyl)-1H-imidazol-2-yl)pyridin-3-yl)-4,5,6,7-tetrahydro-1H-pyrazolo[4,3-c]pyridine]
